Measurements published in ChEMBL document CHEMBL5620344, “Discovery of novel 5-(2-hydroxyphenyl)-2-phthalide-3(3H)-pyrazolones as balanced multifunctional agents against Alzheimer's disease” (Eur J Med Chem, 2023).
Active and inactive are the calls of the source. No cut-off for these calls is given here.

What was measured:
[1] = target: Amyloid-beta precursor protein (Homo sapiens) (UniProt P05067); assay: Inhibition of self-induced amyloid beta (1 to 42) (unknown origin) aggregation assessed as short and thin fibrils incubated for 24 hrs by transmission electron microscopy
[2] = Cmax in BALB/c mouse plasma at 30 mg/kg, ig; type: ADME, organism-based; conditions: po
[3] = target: Amyloid-beta precursor protein (Homo sapiens) (UniProt P05067); assay: Disaggregation of Cu2+-induced amyloid beta (1 to 42) (unknown origin) preformed fibrils at 25 uM by ThT fluorescence assay
BV-2 [4] = assay: Cytotoxicity against mouse BV-2 cells assessed as effect on cell viability at 2.5 to 25 uM by MTT assay; type: toxicity, cell-based; conditions: bv-2, 25 µM, dose 2.5-25 µM
[5] = Tmax in BALB/c mouse brain at 30 mg/kg, ig; type: ADME, organism-based; conditions: po
BV-2 [6] = assay: Anti-neuroinflammatory activity against LPS-stimulated mouse BV-2 cells assessed as inhibition of TNF-alpha release at 10 uM by ELISA; type: functional
[7] = target: T1, Amine oxidase [flavin-containing] A (Homo sapiens, UniProt P21397); assay: Inhibition of human recombinant MAO-A
T1 sequence (P21397 whole entry): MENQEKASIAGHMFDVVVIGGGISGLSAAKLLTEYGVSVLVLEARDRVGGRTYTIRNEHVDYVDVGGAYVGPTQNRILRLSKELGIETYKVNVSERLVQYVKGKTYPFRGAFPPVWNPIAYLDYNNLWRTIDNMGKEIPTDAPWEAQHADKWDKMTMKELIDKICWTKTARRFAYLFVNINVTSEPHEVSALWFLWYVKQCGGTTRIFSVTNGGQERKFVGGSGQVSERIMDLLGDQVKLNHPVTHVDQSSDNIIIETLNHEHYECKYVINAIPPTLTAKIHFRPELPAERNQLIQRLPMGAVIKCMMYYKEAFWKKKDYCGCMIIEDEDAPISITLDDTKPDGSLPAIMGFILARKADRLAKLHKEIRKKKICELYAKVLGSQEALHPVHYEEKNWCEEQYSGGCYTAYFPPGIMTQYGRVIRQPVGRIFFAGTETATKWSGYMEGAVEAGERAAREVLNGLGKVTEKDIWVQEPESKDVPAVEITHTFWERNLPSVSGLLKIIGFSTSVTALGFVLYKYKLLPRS

BV-2 [8] = assay: Anti-neuroinflammatory activity against LPS-stimulated mouse BV-2 cells assessed as inhibition of NO release at 2.5 uM incubated for 24 hrs by Griess reagent based assay; type: functional
MAO-A = target: T2, MAO-A (Homo sapiens, UniProt P21397); assay: Inhibition of human recombinant MAO-A at 10 uM
T2 sequence (P21397 whole entry): T1 sequence (P21397 whole entry)

[9] = Half life in BALB/c mouse plasma at 30 mg/kg, ig; type: ADME, organism-based; conditions: po
[10] = AUC (0 to t) in BALB/c mouse plasma at 30 mg/kg, ig; type: ADME, organism-based; conditions: po
Mus musculus [11] = assay: Antialzheimer activity against amyloid beta (1-42)-induced alzheimer's disease mouse model assessed as decrease in cognitive impairment by measuring increase in time spent in target quadrant in spatial probe trial at 8 to 32 mg/kg and measured on day 6 by Morris water maze test; type: functional, organism-based; conditions: dose 8-32 mg/kg, time 6.0 day
[12] = Antioxidant activity assessed as trolox equivalent of ORAC radical scavenging activity by ORAC-FL assay relative to trolox; type: functional
[13] = target: Amyloid-beta precursor protein (Homo sapiens) (UniProt P05067); assay: Inhibition of self-induced amyloid beta (1 to 42) (unknown origin) aggregation at 25 uM by ThT fluorescence assay
[14] = target: Amyloid-beta precursor protein (Homo sapiens) (UniProt P05067); assay: Inhibition of Cu2+-induced amyloid beta (1 to 42) (unknown origin) aggregation at 25 uM by ThT fluorescence assay
[15] = Selectivity index, ratio of IC50 for human recombinant MAO-A to IC50 for human recombinant MAO-B
[16] = Metal chelating activity assessed as compound-Cu2+ complex formation at stoichiometric ratio of 1:1 in presence of CuCl2 by UV-Vis spectroscopy
[17] = target: Amyloid-beta precursor protein (Homo sapiens) (UniProt P05067); assay: Disaggregation of Cu2+-induced amyloid beta (1 to 42) (unknown origin) preformed fibrils assessed as decrease in size of aggregates incubated for 24 hrs by transmission electron microcopy
Mus musculus [18] = assay: Antialzheimer activity against amyloid beta (1-42)-induced alzheimer's disease mouse model assessed as decrease in cognitive impairment by measuring increase in number of crossing the target area in spatial probe trial at 8 to 32 mg/kg and measured on day 6 by Morris water maze test; type: functional, organism-based; conditions: dose 8-32 mg/kg, time 6.0 day

Amyloid-beta precursor protein (Homo sapiens), sequence (P05067 whole entry): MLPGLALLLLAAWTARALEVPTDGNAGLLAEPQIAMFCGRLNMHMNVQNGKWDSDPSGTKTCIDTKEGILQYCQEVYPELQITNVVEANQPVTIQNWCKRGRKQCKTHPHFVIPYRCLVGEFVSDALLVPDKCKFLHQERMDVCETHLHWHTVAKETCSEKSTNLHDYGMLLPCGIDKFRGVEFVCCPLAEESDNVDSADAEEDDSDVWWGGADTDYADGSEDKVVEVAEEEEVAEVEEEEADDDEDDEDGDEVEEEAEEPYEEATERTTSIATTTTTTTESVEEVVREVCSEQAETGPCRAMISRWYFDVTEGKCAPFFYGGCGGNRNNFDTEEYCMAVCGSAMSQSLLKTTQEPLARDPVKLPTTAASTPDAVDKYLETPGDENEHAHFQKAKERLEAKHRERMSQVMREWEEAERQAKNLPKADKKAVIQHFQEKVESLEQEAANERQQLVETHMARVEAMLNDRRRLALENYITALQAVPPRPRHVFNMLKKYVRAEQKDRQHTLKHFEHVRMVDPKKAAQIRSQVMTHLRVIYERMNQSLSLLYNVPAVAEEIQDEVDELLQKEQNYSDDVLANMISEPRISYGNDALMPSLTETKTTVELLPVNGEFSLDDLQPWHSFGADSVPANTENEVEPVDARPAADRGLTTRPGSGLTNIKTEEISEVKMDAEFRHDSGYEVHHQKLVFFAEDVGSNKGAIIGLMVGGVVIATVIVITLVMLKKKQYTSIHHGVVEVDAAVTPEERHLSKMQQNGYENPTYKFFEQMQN

- inhibition [1]: Active
- Cmax [2]: 1540 ng/mL
- Activity [3]: 82.4%
- Tmax [5]: 1 h
- half-life [9]: 1.15 h
- AUC(0-t) [10]: 2940 ng·h/mL
- inhibition [13]: 56%
- inhibition [14]: 57.5%
- Ratio IC50 [15]: > 24.4
- Activity [16]: Active
- Activity [17]: Active
Compound: CCCCCCCC1OC(=O)c2cc(N3N=C(c4cc(Cl)ccc4O)CC3=O)ccc21 (centres undefined)
- Activity (BV-2 [4]): Non-Toxic
- inhibition at 10 µM (BV-2 [6]): 71.6%
- IC50 [7]: > 10 µM
- inhibition at 2.5 µM (BV-2 [8]): 37.9%
- inhibition at 10 µM (MAO-A): 32.6%
- Activity (Mus musculus [11]): Active
- Ratio [12]: 1.16 equiv
- Activity (Mus musculus [18]): Active
